Source: patent publication US5795859A (priority 1991, dated 1998)
Ends that are not written are not given here.

What was measured:
[1] = system: D-galactosamine sensitized mice; experiment: TNF toxicity in D-galactosamine sensitized mice; assay type: in vivo; details: 16 mg D-galactosamine and 2 μg human recombinant TNF i.p., peptide s.c.; survival up to 48 hours
Method: The mice were then injected subcutaneously with either test peptide, phosphate buffered saline or neutralizing anti-TN? monoclonal antibody 47.

mice = experiment: In vivo TNF toxicity, blood glucose and appearance; details: 10 μg of Peptide 2, 200 μg recombinant human TNF
Method: Appearance parameters which were evaluated included ruffling of fur, touch sensitivity, presence of eye exudate, light sensitivity and diarrhoea.
Nonfasting blood glucose levels were determined on a Beckman Glucose Analyzer 2 (Beckman Instruments) or on a Exectech blood glucose sensor (Clifford Hallam Pty. Ltd).

[2] = system: Meth A ascites tumour-bearing mice; experiment: LPS lethality in Meth A ascites tumour-bearing mice; assay type: in vivo; details: 500 μg E.coli LPS, peptide s.c.; survival up to 64 hours; * heightened activity
Method: In LPS experiments polymyxin B, an LPS inhibitor, replaced MAb 47 as a positive control. The number of animals surviving was assessed at intervals up to 64 hours after LPS challenge.

[3] = system: bovine aortic endothelial cells
Method: Endothelial cell procoagulant activity (PCA) induction by TNFα was determined using bovine aortic endothelial cells (BAE) according to the procedure of Bevilacqua et al., 1986 PNAS 83, 4522 with the following modifications: BAE cells were propagated in McCoys 5A medium supplemented with 10% FCS, penicillin, streptomycin and L-gutamine in standard tissue culture flasks and 24-well dishes. TNFα treatment of culture (3 μg/ml) was for 4 hours at 37° C. in the presence of growth medium after which the cells were washed and scrape-harvested before being frozen, thawed and sonicated. Total cellular PCA was determined in a standard one-stage clotting assay using normal donor platelet poor plasma to which 100 μl of CaCl2 and 100 μl of cell lystate was added. Statistical significance was determined by unpaired t-test.

Method for human neutrophils: In these experiments, neutrophils were prepared from blood of healthy volunteers by the rapid single step method (Kowanko and Ferrante 1987 Immunol 62, 149). To 100 μl of 5×10^6 neutrophils/ml was added 100 μl of either 0, 10, 100 μg of peptide/ml and 800 μl of lucigenin (100 μg). The tubes were immediately placed into a light proof chamber (with a 37° C. water jacket incubator) of a luminometer (model 1250; LKB Instruments, Wallac, Turku, Finaldn). The resultant light output (in millivolts was recorded). The results are recorded as the maximal rate of chemiluminescence production.

Substance | IN VIVO TNF TOXICITY D-GAL [1] | TNF toxicity as indicated by blood glucose changes (mice) | IN VIVO LPS TOXICITY METH A [2] | induction of procoagulant activity [3] | activation of the respiratory burst (human neutrophils)
ARG THR PRO SER ASP LYS VAL PRO ALA HIS VAL VAL ALA (RTPSDKVPAHVVA; printed: ARG THR PRO SER ASP LYS VAL PRO ALA HIS VAL VAL ALA) [Peptide 2] | + (each group contains 10 animals: scored positive if 6 or more survive) | abrogated TNF toxicity | – | – | –
Ac-PSDKPVA-NH2 [Peptide 29, Ac PRO SER ASP LYS PRO VAL ALA NH2] | – | – | + (10 animals per group scored positive if 7 or more survive) | – | –
Ac-RTPSDKPVAHV-NH2 [Peptide 30, Ac ARG THR PRO SER ASP LYS PRO VAL ALA HIS VAL NH2] | + (each group contains 10 animals: scored positive if 6 or more survive) | – | + (10 animals per group scored positive if 7 or more survive) | – | –
VRSSSRTPSDKPVAHVVA [Peptide 1, VAL ARG SER SER SER ARG THR PRO SER ASP LYS PRO VAL ALA HIS VAL VAL ALA] | – | – | – | failed to either activate the respiratory burst of human neutrophils (Table 5) or to induce procoagulant activity | failed to either activate the respiratory burst
